Results: US20260224547A1, “COMPOSITIONS COMPRISING ANATABINE AND USES THEREOF” (Philip Morris Products S.A., priority 2021, published 2026)
Counter-ions that a name gives are not always drawn.

Legend:
NRF2 = NRF2 luciferase assay (NRF2/ARE reporter cell line); format: cell-based, human; details: for maximum log 2-fold change of NRF2 activation: at 12.5 μM for sulforaphane, 125 μM and 250 μM for DMF, 1000 μM for anatabine; for effect on the NRF2 pathway: FIG. 4, tobacco alkaloids
Excerpt: A HEK-293 NRF2/ARE luciferase reporter cell line was acquired from Signosis (USA). According to Signosis, this NRF2 luciferase reporter stable cell line had been stably transfected with pTA-ARE-luciferase reporter vector, which contains 4 repeats of antioxidant response binding sites, a minimal promoter upstream of the firefly luciferase coding region, along with a hygromycin expression vector. Following selection, the hygromycin resistant clones were subsequently screened for TBHQ-induced luciferase activity. The clone with the highest fold induction was selected and expanded to produce this stable cell line.
4, 8 or 24 hours after stimulation of the NRF2 reporter cells luminescence was measured using a FLUOstar Omega plate reader.

NRF2 reporter cells = experiment: Cell viability measured with ATP assay alongside NRF2 translocation (FIG. 4 to 7); details: for cell viability, percentage of the vehicle control: human
Excerpt: FIGS. 5A to 5C: bar and line graphs showing NRF2 translocation presented as log 2 fold change compared to vehicle control (bars) and cell viability measured with ATP assay and presented as a percentage of the vehicle control (line) for anatabine (FIG. 5A), dimethyl fumarate (AlfaAesar) (FIG. 5B), and nornicotine (FIG. 5C).
FIGS. 6A to 6C: bar graphs showing NRF2 translocation presented as log 2 fold change compared to vehicle control (bars) and cell viability measured with ATP assay and presented as a percentage of the vehicle control (line) for anatabine (FIG. 6A), dimethyl fumarate (Sigma) (FIG. 6B), and sulforaphane (FIG. 6C).
FIGS. 7A and […]: bar graphs showing NRF2 translocation presented as log 2 fold change compared to vehicle control (bars) and cell viability measured with ATP assay and presented as a percentage of the vehicle control (line) for cotinine (FIG. 7A) and nicotine (FIG. 7B).

| Structure (SMILES) | maximum log 2-fold change of NRF2 activation (NRF2) | cell viability at higher concentrations (NRF2 reporter cells) | effect on the NRF2 pathway (NRF2) | cell viability, percentage of the vehicle control (NRF2 reporter cells; 500 μM) | also measured |
| --- | --- | --- | --- | --- | --- |
| C[S+]([O-])CCCCN=C=S (centres unmarked) [sulforaphane] | approximately 5 | significantly reduced |  |  | NRF2 activation, log 2-fold change (NRF2; 0.78 to 50 μM (P<0.01)): increase; cell viability, percentage of the vehicle control (NRF2 reporter cells; 25 μM): around 50% |
| CN1C(=O)CC[C@H]1c1cccnc1 [cotinine] |  |  | do not substantially affect | below 85% | cell viability, percentage of the vehicle control (NRF2 reporter cells; 1000 μM): below 85% |
| CN1CCCC1c1cccnc1 (centres unmarked) [nicotine] |  |  | do not substantially affect |  |  |
| c1cncc([C@@H]2CCCN2)c1 [nornicotine] |  |  | do not substantially affect |  |  |
| COC(=O)/C=C/C(=O)OC [DMF, dimethyl fumarate] | 6 to 7 | significantly reduced |  | ~0% | NRF2 activation, log 2-fold change (NRF2; 125 μM, DMF from AlfaAesar): 6.74; NRF2 activation, log 2-fold change (NRF2; 125 μM, DMF from Sigma): 6.90; NRF2 activation, log 2-fold change (NRF2; 250 μM, DMF from AlfaAesar): 6.81; NRF2 activation, log 2-fold change (NRF2; 250 μM, DMF from Sigma): 6.67 |
| c1cncc([C@@H]2CCCCN2)c1 [anabasine] |  |  | do not substantially affect |  |  |
